The NIST ThermoML archive (doi:10.1007/s10765-009-0579-1)

Assay: xn = mol fraction of the nth substance listed
Details: Gas; for viscosity: Oscillating disk viscometry; for mass density: Pycnometric method

CC(F)(F)Cl [1-chloro-1,1-difluoroethane] + FC(F)Cl
Details | mass density [kg/m3] | viscosity [mPa·s]
373.15 K, 2604 kPa, x2 = 0.7502 | 99.88 | 0.01618
373.15 K, 2789 kPa, x2 = 0.7502 | 110.3 | 0.01638
373.15 K, 2988 kPa, x2 = 0.7502 | 121.8 | 0.01665
398.15 K, 100.6 kPa, x2 = 0.7502 | 2.753 | 0.01605
398.15 K, 101.6 kPa, x2 = 0.2615 | 2.997 | 0.01472
398.15 K, 101.8 kPa, x2 = 0.5169 | 2.886 | 0.01547
398.15 K, 102 kPa, x2 = 0.2615 | 3.006 | 0.0147
398.15 K, 278.9 kPa, x2 = 0.2615 | 8.354 | 0.01475
398.15 K, 345.7 kPa, x2 = 0.5169 | 9.975 | 0.01548
398.15 K, 404.8 kPa, x2 = 0.7502 | 11.29 | 0.01605
398.15 K, 468 kPa, x2 = 0.2615 | 14.28 | 0.01477
398.15 K, 591.5 kPa, x2 = 0.5169 | 17.39 | 0.01553
398.15 K, 654.1 kPa, x2 = 0.2615 | 20.27 | 0.01482
398.15 K, 779.9 kPa, x2 = 0.7502 | 22.29 | 0.01612
398.15 K, 834.7 kPa, x2 = 0.5169 | 25.01 | 0.01557
398.15 K, 908.9 kPa, x2 = 0.2615 | 28.88 | 0.01485
398.15 K, 1036 kPa, x2 = 0.7502 | 30.15 | 0.01619
398.15 K, 1081 kPa, x2 = 0.5169 | 33.05 | 0.01562
398.15 K, 1153 kPa, x2 = 0.2615 | 37.53 | 0.01493
398.15 K, 1326 kPa, x2 = 0.5169 | 41.4 | 0.01572
398.15 K, 1374 kPa, x2 = 0.7502 | 40.98 | 0.01628
398.15 K, 1397 kPa, x2 = 0.2615 | 46.73 | 0.01504
398.15 K, 1569 kPa, x2 = 0.5169 | 50.2 | 0.01584
398.15 K, 1608 kPa, x2 = 0.2615 | 55.16 | 0.0151
398.15 K, 1667 kPa, x2 = 0.7502 | 50.88 | 0.01642
398.15 K, 1821 kPa, x2 = 0.2615 | 63.97 | 0.01525
398.15 K, 1824 kPa, x2 = 0.5169 | 59.84 | 0.01596
398.15 K, 2016 kPa, x2 = 0.7502 | 63.22 | 0.01657
398.15 K, 2031 kPa, x2 = 0.2615 | 73.54 | 0.01542
398.15 K, 2121 kPa, x2 = 0.5169 | 71.87 | 0.01616
398.15 K, 2251 kPa, x2 = 0.2615 | 84.17 | 0.0156
398.15 K, 2376 kPa, x2 = 0.5169 | 82.87 | 0.01632
398.15 K, 2376 kPa, x2 = 0.7502 | 77.16 | 0.01679
398.15 K, 2442 kPa, x2 = 0.2615 | 94.09 | 0.01576
398.15 K, 2634 kPa, x2 = 0.5169 | 94.96 | 0.01655
398.15 K, 2637 kPa, x2 = 0.2615 | 105.1 | 0.01598
398.15 K, 2813 kPa, x2 = 0.7502 | 95.48 | 0.01711
398.15 K, 2835 kPa, x2 = 0.2615 | 117.2 | 0.01629
398.15 K, 2884 kPa, x2 = 0.5169 | 107.4 | 0.0168
398.15 K, 3101 kPa, x2 = 0.2615 | 136 | 0.01673
398.15 K, 3115 kPa, x2 = 0.7502 | 109.3 | 0.01741
398.15 K, 3195 kPa, x2 = 0.5169 | 124.9 | 0.01716
398.15 K, 3322 kPa, x2 = 0.2615 | 154.3 | 0.01724
398.15 K, 3403 kPa, x2 = 0.7502 | 128.5 | 0.01784
398.15 K, 3432 kPa, x2 = 0.5169 | 139.6 | 0.01752
398.15 K, 3481 kPa, x2 = 0.2615 | 170.2 | 0.01773
398.15 K, 3698 kPa, x2 = 0.2615 | 196.3 | 0.01858
398.15 K, 3714 kPa, x2 = 0.5169 | 159.3 | 0.01808
398.15 K, 3825 kPa, x2 = 0.7502 | 146.7 | 0.01827
398.15 K, 3854 kPa, x2 = 0.2615 | 222.4 | 0.01953
398.15 K, 3961 kPa, x2 = 0.5169 | 179.5 | 0.01865
398.15 K, 3998 kPa, x2 = 0.2615 | 261.2 | 0.02101
398.15 K, 4086 kPa, x2 = 0.7502 | 162.7 | 0.01865
398.15 K, 4222 kPa, x2 = 0.5169 | 204.9 | 0.01952
398.15 K, 4343 kPa, x2 = 0.7502 | 180.2 | 0.01918
398.15 K, 4446 kPa, x2 = 0.5169 | 231.6 | 0.02048
398.15 K, 4642 kPa, x2 = 0.7502 | 203.6 | 0.01991
398.15 K, 4840 kPa, x2 = 0.7502 | 218.9 | 0.0205
423.15 K, 101.1 kPa, x2 = 0.7502 | 2.597 | 0.01682
423.15 K, 102.1 kPa, x2 = 0.2615 | 2.829 | 0.01579
423.15 K, 102.2 kPa, x2 = 0.5169 | 2.723 | 0.01631
423.15 K, 346.2 kPa, x2 = 0.5169 | 9.354 | 0.01634
423.15 K, 390.7 kPa, x2 = 0.7502 | 10.18 | 0.01687
423.15 K, 394 kPa, x2 = 0.2615 | 11.13 | 0.01581
423.15 K, 642 kPa, x2 = 0.5169 | 17.67 | 0.01639
423.15 K, 685.5 kPa, x2 = 0.7502 | 18.14 | 0.01697
423.15 K, 686.5 kPa, x2 = 0.2615 | 19.8 | 0.01588
423.15 K, 935.8 kPa, x2 = 0.5169 | 26.24 | 0.01646
423.15 K, 978.6 kPa, x2 = 0.2615 | 28.81 | 0.01594
423.15 K, 1026 kPa, x2 = 0.7502 | 27.65 | 0.01702
423.15 K, 1230 kPa, x2 = 0.5169 | 35.16 | 0.01657
423.15 K, 1273 kPa, x2 = 0.2615 | 38.54 | 0.01604
423.15 K, 1368 kPa, x2 = 0.7502 | 37.56 | 0.01711
423.15 K, 1537 kPa, x2 = 0.5169 | 44.54 | 0.01663
423.15 K, 1569 kPa, x2 = 0.2615 | 48.6 | 0.01618
423.15 K, 1706 kPa, x2 = 0.7502 | 47.76 | 0.01724
423.15 K, 1832 kPa, x2 = 0.5169 | 54.69 | 0.01677
423.15 K, 1878 kPa, x2 = 0.2615 | 59.81 | 0.01632
423.15 K, 2055 kPa, x2 = 0.7502 | 58.73 | 0.01731
423.15 K, 2158 kPa, x2 = 0.2615 | 70.63 | 0.0165
423.15 K, 2158 kPa, x2 = 0.5169 | 65.98 | 0.01694
423.15 K, 2415 kPa, x2 = 0.7502 | 70.79 | 0.0175
423.15 K, 2436 kPa, x2 = 0.2615 | 81.74 | 0.01671
423.15 K, 2444 kPa, x2 = 0.5169 | 76.64 | 0.01711
423.15 K, 2719 kPa, x2 = 0.7502 | 81.34 | 0.01769
423.15 K, 2740 kPa, x2 = 0.5169 | 88.1 | 0.01736
423.15 K, 2797 kPa, x2 = 0.2615 | 98.1 | 0.01703
423.15 K, 3055 kPa, x2 = 0.5169 | 101.2 | 0.01765
423.15 K, 3152 kPa, x2 = 0.2615 | 115.5 | 0.01743
423.15 K, 3159 kPa, x2 = 0.7502 | 97.7 | 0.01797
423.15 K, 3389 kPa, x2 = 0.5169 | 116.1 | 0.01791
423.15 K, 3440 kPa, x2 = 0.2615 | 131.6 | 0.01785
423.15 K, 3481 kPa, x2 = 0.7502 | 110.3 | 0.01829
423.15 K, 3680 kPa, x2 = 0.2615 | 145.8 | 0.01822
423.15 K, 3703 kPa, x2 = 0.5169 | 131.2 | 0.0183
423.15 K, 3855 kPa, x2 = 0.7502 | 126.4 | 0.01863
423.15 K, 3921 kPa, x2 = 0.2615 | 160.9 | 0.01868
423.15 K, 3992 kPa, x2 = 0.5169 | 146.2 | 0.01874
423.15 K, 4203 kPa, x2 = 0.7502 | 142 | 0.01894
423.15 K, 4227 kPa, x2 = 0.2615 | 184.1 | 0.01939
423.15 K, 4325 kPa, x2 = 0.5169 | 165.2 | 0.01926
423.15 K, 4504 kPa, x2 = 0.2615 | 207.1 | 0.02023
423.15 K, 4560 kPa, x2 = 0.7502 | 159.4 | 0.01947
423.15 K, 4634 kPa, x2 = 0.5169 | 184.7 | 0.01988
423.15 K, 4740 kPa, x2 = 0.2615 | 230.5 | 0.0212
423.15 K, 4895 kPa, x2 = 0.5169 | 203.4 | 0.02048
423.15 K, 4897 kPa, x2 = 0.7502 | 176.4 | 0.01997
423.15 K, 4956 kPa, x2 = 0.2615 | 254.1 | 0.0222
423.15 K, 5173 kPa, x2 = 0.5169 | 223.6 | 0.02124
423.15 K, 5183 kPa, x2 = 0.2615 | 285.1 | 0.02361
423.15 K, 5286 kPa, x2 = 0.2615 | 294.5 | 0.02439
423.15 K, 5301 kPa, x2 = 0.7502 | 200.1 | 0.02057
423.15 K, 5380 kPa, x2 = 0.5169 | 240.7 | 0.02187
423.15 K, 5605 kPa, x2 = 0.7502 | 219.3 | 0.02121
423.15 K, 5612 kPa, x2 = 0.5169 | 261.9 | 0.02295
423.15 K, 5795 kPa, x2 = 0.5169 | 280.3 | 0.02357
423.15 K, 5936 kPa, x2 = 0.7502 | 242.2 | 0.02202
423.15 K, 6270 kPa, x2 = 0.7502 | 267.2 | 0.02299
